Measurements: patent publication US12473298B2, “Amide compounds, preparation method therefor, and use thereof in the medical field” (Shanghai Synergy Pharmaceutical Sciences Co., Ltd., priority 2019, dated 2025)
Read-outs that look alike come from different tables or passages of the source.

Assays:
Mutant type EZH2(Y641F) = Mutant type EZH2(Y641F) (Homo sapiens (Human), UniProt Q15910, Y641F); assay: AlphaLISA, mutant type PRC2 complex EZH2(Y641F); assay type: biochemical; conditions: read-out: Mutant type EZH2(Y641F) IC50 Nanomoles per Liter
Mutant type EZH2(A677G) = Mutant type EZH2(A677G) (Homo sapiens (Human), UniProt Q15910, A677G); assay: AlphaLISA, mutant type PRC2 complex EZH2(A677G); assay type: biochemical
Mutant type EZH2(Y641N) = Mutant type EZH2(Y641N) (Homo sapiens (Human), UniProt Q15910, Y641N); assay: AlphaLISA, mutant type PRC2 complex EZH2(Y641N); assay type: biochemical; conditions: read-out: Mutant type EZH2(Y641N) IC50 Nanomoles per Liter
[1] = system: human diffuse large cell lymphoma B lymphocytes (Pfeiffer cell); assay: Pfeiffer cell proliferation, Calcein AM staining; assay type: cell-based
Excerpt: The diffuse large cell lymphoma B lymphocytes (Pfeiffer cells) were collected and counted when growing well.

[2] = system: human diffuse large B-cell lymphoma cells (Karpas 422 cell); assay: Karpas 422 cell proliferation, Calcein AM staining; assay type: cell-based
[3] = Pharmacokinetic experiment in rats; assay type: in vivo, SD rats
Procedure: A certain amount of compound was weighted and dissolved in 0.1% Tween under vortex and ultrasound, and 0.5% carboxymethyl cellulose sodium (CMC-NA) solution was added to form a uniform solution.

wild-type EZH2 = wild-type EZH2 (Homo sapiens (Human), UniProt Q15910); assay: radiometric assay, activity to wild-type EZH2 of PRC2
Procedure: 25 μL of reaction solution was transferred to a scintillation plate, which was incubated at room temperature for 1 hour (h) and washed with deionized water and 0.1% Tween 20 for three times. A PerkinElmer liquid scintillation/luminescence counter was used to read the value, and GraphPad Prism 5 was used to calculate the median inhibitory concentration (IC50) of the compounds.

[4] = system: human diffuse large cell lymphoma B lymphocytes (Pfeiffer cell); assay: Pharmacodynamic experiment, Pfeiffer transplanted tumor model in mice; assay type: in vivo, mice (beige SCID); conditions: Mus musculus, Pfeiffer, po, 504 h, intragastrically, once a day for 21 days, read-out: inhibited tumor growth
Excerpt: Under sterile conditions, human diffuse large cell lymphoma B lymphocytes (Pfeiffer cell) in logarithmic growth stage were digested and mixed with Matrigel and transplanted subcutaneously on the right back of mice (beige SCID) with severe combined immunodeficiency disease.

[5] = read-out: Mutant type EZH2(A677G) IC59 Nanomoles per Liter
[6] = Homo sapiens, Pfeiffer, data of 14th day, read-out: Pfeiffer Proliferation IC50 Nanomoles per Liter
[7] = Homo sapiens, KARPAS-422, data of 14th day, read-out: Karpas422 Proliferation IC50 Nanomoles per Liter
[8] = male, SD, rat, plasma, rats, Intravenous-Dose 4 mg/kg, read-out: Area Curve (AUC, ng/mL · h)
[9] = male, SD, rat, plasma; rats, Intravenous-Dose 4 mg/kg; read-out: Half life T1/2, h) (converted)
[10] = male, SD, rat, plasma, rats, Oral-Dose 20 mg/kg, read-out: Area Curve (AUC, ng/mL · h)
[11] = male, SD, rat, plasma, rats, Oral-Dose 20 mg/kg, read-out: Blood Drug level (Cmax, ng/mL)
[12] = male, SD, rat, plasma, rats, oral 20 mg/kg vs intravenous 4 mg/kg, read-out: Bioavailability (P %)
[13] = read-out: Wild-type EZH2 IC50 Nanomoles per Liter
[14] = male, SD, rat, in vivo, iv, 4 mg/kg
[15] = male, SD, rat, in vivo, po, 20 mg/kg

Sequence of wild-type EZH2 (Q15910 whole entry): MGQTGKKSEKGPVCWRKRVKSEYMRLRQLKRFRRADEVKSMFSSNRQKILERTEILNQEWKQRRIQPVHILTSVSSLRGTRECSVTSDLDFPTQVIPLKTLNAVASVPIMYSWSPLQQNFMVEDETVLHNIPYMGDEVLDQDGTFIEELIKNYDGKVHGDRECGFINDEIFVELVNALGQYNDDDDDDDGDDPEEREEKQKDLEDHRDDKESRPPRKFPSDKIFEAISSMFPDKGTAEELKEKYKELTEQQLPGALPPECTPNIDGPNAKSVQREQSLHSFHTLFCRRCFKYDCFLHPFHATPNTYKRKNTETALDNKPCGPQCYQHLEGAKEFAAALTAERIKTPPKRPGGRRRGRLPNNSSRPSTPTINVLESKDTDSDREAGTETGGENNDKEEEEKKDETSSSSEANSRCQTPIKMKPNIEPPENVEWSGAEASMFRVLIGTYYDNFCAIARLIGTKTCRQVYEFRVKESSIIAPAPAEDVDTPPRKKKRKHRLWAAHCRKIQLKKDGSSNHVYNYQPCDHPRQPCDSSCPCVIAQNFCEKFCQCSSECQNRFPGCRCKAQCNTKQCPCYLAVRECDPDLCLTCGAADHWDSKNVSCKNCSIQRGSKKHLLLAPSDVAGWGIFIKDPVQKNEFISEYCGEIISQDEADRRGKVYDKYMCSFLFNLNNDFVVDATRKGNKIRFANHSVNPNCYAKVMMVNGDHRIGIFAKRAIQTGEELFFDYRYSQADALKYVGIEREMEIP
Sequence of wild-type EZH2 (O75530 whole entry partner): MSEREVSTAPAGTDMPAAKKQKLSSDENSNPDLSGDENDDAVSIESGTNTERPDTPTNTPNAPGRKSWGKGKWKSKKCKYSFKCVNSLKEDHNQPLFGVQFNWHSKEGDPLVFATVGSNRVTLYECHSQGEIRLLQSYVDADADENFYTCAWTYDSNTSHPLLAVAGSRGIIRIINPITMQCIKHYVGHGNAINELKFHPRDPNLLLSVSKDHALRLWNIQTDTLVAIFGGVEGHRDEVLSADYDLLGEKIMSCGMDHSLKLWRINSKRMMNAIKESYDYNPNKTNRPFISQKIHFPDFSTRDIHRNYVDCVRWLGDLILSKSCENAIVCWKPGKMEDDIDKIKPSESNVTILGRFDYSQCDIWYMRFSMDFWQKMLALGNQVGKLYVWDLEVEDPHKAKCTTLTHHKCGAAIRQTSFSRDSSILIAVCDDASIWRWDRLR
Sequence of wild-type EZH2 (Q15022 whole entry partner): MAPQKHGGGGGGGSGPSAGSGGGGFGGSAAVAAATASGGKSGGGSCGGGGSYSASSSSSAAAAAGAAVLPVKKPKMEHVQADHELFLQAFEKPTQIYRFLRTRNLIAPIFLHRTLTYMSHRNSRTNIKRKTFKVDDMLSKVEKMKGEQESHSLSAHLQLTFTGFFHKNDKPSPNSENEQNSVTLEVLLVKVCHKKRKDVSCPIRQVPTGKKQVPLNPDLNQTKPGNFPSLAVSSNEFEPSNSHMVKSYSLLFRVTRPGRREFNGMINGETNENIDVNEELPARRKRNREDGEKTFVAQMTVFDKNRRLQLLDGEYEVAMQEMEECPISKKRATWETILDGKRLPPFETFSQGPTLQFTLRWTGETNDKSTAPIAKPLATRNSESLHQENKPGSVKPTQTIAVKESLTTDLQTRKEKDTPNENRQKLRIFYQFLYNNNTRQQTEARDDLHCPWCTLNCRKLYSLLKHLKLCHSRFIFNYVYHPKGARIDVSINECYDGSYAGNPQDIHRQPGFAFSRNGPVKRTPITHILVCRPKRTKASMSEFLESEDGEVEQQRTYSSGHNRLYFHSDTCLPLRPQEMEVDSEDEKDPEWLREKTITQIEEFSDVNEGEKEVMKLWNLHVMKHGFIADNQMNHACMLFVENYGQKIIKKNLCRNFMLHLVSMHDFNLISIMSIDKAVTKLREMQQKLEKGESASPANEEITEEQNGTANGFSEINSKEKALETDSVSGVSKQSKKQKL
Sequence of Mutant type EZH2(Y641F) (Q15910 whole entry Y641F): as the sequence (Q15910 whole entry) above, with Y641F counted along it
Sequence of Mutant type EZH2(Y641F) (O75530 whole entry partner): as the sequence (O75530 whole entry partner) above
Sequence of Mutant type EZH2(Y641F) (Q15022 whole entry partner): as the sequence (Q15022 whole entry partner) above
Sequence of Mutant type EZH2(Y641F) (Q09028 whole entry partner): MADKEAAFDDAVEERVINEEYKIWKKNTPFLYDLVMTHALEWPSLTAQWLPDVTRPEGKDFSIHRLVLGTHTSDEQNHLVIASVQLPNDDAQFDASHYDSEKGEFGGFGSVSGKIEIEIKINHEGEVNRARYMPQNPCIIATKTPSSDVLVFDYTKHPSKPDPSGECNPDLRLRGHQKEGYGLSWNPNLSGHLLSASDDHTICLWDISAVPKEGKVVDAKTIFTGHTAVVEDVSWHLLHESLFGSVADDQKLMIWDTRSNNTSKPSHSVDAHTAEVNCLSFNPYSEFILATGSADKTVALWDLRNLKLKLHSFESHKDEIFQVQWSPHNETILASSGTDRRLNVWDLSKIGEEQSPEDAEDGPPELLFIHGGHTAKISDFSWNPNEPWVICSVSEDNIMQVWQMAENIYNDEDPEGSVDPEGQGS
Sequence of Mutant type EZH2(Y641F) (Q6ZN18 whole entry partner): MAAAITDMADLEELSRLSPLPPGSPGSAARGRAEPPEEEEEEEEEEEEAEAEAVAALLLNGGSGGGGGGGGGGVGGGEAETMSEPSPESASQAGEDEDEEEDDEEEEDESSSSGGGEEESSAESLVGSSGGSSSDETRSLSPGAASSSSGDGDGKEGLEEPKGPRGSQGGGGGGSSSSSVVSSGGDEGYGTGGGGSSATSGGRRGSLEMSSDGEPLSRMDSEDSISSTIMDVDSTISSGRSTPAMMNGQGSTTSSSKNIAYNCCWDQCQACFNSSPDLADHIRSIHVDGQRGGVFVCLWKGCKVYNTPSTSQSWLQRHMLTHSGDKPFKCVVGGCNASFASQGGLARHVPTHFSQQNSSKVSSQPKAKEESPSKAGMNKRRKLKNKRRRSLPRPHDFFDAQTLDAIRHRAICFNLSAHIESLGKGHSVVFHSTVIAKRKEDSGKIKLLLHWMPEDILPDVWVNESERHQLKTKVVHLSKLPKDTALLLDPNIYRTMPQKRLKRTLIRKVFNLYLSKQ
Sequence of Mutant type EZH2(A677G) (Q15910 whole entry A677G): as the sequence (Q15910 whole entry) above, with A677G counted along it
Sequence of Mutant type EZH2(A677G) (O75530 whole entry partner): as the sequence (O75530 whole entry partner) above
Sequence of Mutant type EZH2(A677G) (Q15022 whole entry partner): as the sequence (Q15022 whole entry partner) above
Sequence of Mutant type EZH2(A677G) (Q09028 whole entry partner): as the sequence (Q09028 whole entry partner) above
Sequence of Mutant type EZH2(A677G) (Q6ZN18 whole entry partner): as the sequence (Q6ZN18 whole entry partner) above
Sequence of Mutant type EZH2(Y641N) (Q15910 whole entry Y641N): as the sequence (Q15910 whole entry) above, with Y641N counted along it
Sequence of Mutant type EZH2(Y641N) (O75530 whole entry partner): as the sequence (O75530 whole entry partner) above
Sequence of Mutant type EZH2(Y641N) (Q15022 whole entry partner): as the sequence (Q15022 whole entry partner) above
Sequence of Mutant type EZH2(Y641N) (Q09028 whole entry partner): as the sequence (Q09028 whole entry partner) above
Sequence of Mutant type EZH2(Y641N) (Q6ZN18 whole entry partner): as the sequence (Q6ZN18 whole entry partner) above

| IC50 (Mutant type EZH2(Y641F)) | IC50 (Mutant type EZH2(A677G); [5]) | IC50 (Mutant type EZH2(Y641N)) | IC50 [1, 6] | IC50 [2, 7] | IC50 (wild-type EZH2; [13]) | Compound | further results |
| --- | --- | --- | --- | --- | --- | --- | --- |
| 0.82 nM | 0.51 nM | 0.48 nM | 4.17 nM | 5.78 nM | 1.02 nM | CCN(c1cc(-c2ccc3c(c2)NC(=O)C32CCOCC2)cc(C(=O)NCc2c(OC)cc(C)[nH]c2=O)c1C)C1CCOCC1OC (stereo not drawn) [Example 112, 3-(Ethyl(3-methoxytetrahydro-2H-pyran-4-yl)amino)-N-((4-methoxy-6-methyl-2-oxo-1,2-dihydropyridin-3-yl)methyl)-2-methyl-5-(2-oxo-2′,3′,5′,6′-tetrahydrospiro[dihydroindole-3,4′-pyran]-6-yl)benzamide] | AUC [3, 8]: 0.936 µg·h/mL; half-life [3, 9]: 1.26 h; AUC [3, 10]: 1.19 µg·h/mL; Cmax [3, 11]: 494 ng/mL; bioavailability [3, 12]: 25.5% |
|  |  |  |  |  |  | CCN(c1cc(-c2ccc3c(c2)N(C)C(=O)C32CCNCC2)cc(C(=O)NCc2c(OC)cc(C)[nH]c2=O)c1C)C1CCOCC1 [Example 34, 3-(ethyl(tetrahydro-2H-pyran-4-yl)amino)-N-((4-methoxy-6-methyl-2-carbonyl-1,2-dihydropyridin-3-yl)methyl)-2-methyl-5-(1-methyl-2-carbonylspiro[dihydroindole-3,4′-piperidine]-6-yl)benzamide] | AUC [3, 8]: 0.966 µg·h/mL; half-life [3, 9]: 1.32 h; AUC [3, 10]: 1.75 µg·h/mL; Cmax [3, 11]: 594 ng/mL; bioavailability [3, 12]: 36.3%; inhibition in vivo at 100 mg/kg [4]: 96% |
| 0.58 nM | 0.42 nM | 0.3 nM | 0.65 nM | 0.97 nM |  | CCN(c1cc(-c2ccc3c(c2)N(C(C)C(C)C)CC32CCOCC2)c(Cl)c(C(=O)NCc2c(C)cc(C)[nH]c2=O)c1C)C1CCOCC1 (stereo not drawn) [Example 55, 2-chloro-N-((4,6-dimethyl-2-oxo-1,2-dihydropyridin-3-yl)methyl)-5-(ethyl(tetrahydro-2H-pyran-4-yl)amino)-6-methyl-3-(1-(3-methylbutyl-2-yl)-2′,3′,5′,6′-tetrahydrospiro[dihydroindole-3,4′-pyran]-6-yl)benzamide] | AUC [3, 8]: 0.933 µg·h/mL; half-life [3, 9]: 1.53 h; AUC [3, 10]: 1.27 µg·h/mL; Cmax [3, 11]: 438 ng/mL; bioavailability [3, 12]: 27.1%; IC50 (wild-type EZH2): 0.63 nM |
|  |  |  |  |  |  | CCN(c1cc(-c2ccc3c(c2)NCC32CCOCC2)cc(C(=O)NCc2c(OC)cc(C)[nH]c2=O)c1C)C1CCNCC1 [Example 5, 3-(ethyl(piperidin-4-yl)amino)-N-((4-methoxy-6-methyl-2-oxo-1,2-dihydropyridin-3-yl)methyl)-2-methyl-5-(2′,3′,5′,6′-tetrahydrospiro[indoline-3,4′-pyran]-6-yl)benzamide] | AUC [3, 8]: 0.912 µg·h/mL; half-life [3, 9]: 1.05 h; AUC [3, 10]: 1.57 µg·h/mL; Cmax [3, 11]: 453 ng/mL; bioavailability [3, 12]: 34.3%; inhibition in vivo at 100 mg/kg [4]: 98% |
| 0.92 nM | 0.72 nM | 0.52 nM |  |  | 1.15 nM | CCN(c1cc(-c2ccc3c(c2)C2(CCOCC2)C(=O)N3C)cc(C(=O)NCc2c(OC)cc(C)[nH]c2=O)c1C)C1CCN(CC(F)(F)F)CC1 [Example 123, 3-(Ethyl(1-(2,2,2-trifluoroethyl)piperidin-4-yl)amino)-N-((4-methoxy-6-methyl-2-oxo-1,2-dihydropyridin-3-yl)methyl)-2-methyl-5-(1-methyl-2-oxo-2′,3′,5′,6′-tetrahydrospiro[dihydroindole-3,4′-pyran]-5-yl)benzamide] | IC50 ([1]; data of 14th day, read-out: Pfeiffer Proliferation IC50 Nanomoles per Liter): 2.84 nM; IC50 ([2]; data of 14th day, read-out: Karpas422 Proliferation IC50 Nanomoles per Liter): 3.23 nM |
| 0.95 nM | 0.82 nM | 0.57 nM | 2.74 nM | 3.68 nM | 1.16 nM | CCN(c1cc(-c2cnc3c(c2)NC(=O)C32CCOCC2)cc(C(=O)NCc2c(C)cc(C)[nH]c2=O)c1C)C1CCOCC1 [Example 101, N-((4,6-Dimethyl-2-oxo-1,2-dihydropyridin-3-yl)methyl)-3-(ethyl(tetrahydro-2H-pyran-4-yl)amino)-2-methyl-5-(2′-oxo-1′,2,2′,3,5,6-hexahydrospiro[pyran-4,3′-pyrrolo[3,2-b]pyridine]-6′-yl)benzamide] |  |
| 0.73 nM | 0.77 nM | 0.62 nM | 3.83 nM | 4.74 nM | 1.31 nM | CCN(c1cc(-c2ccc3c(c2)NC(=O)C32CCC(O)CC2)cc(C(=O)NCc2c(C)cc(C)[nH]c2=O)c1C)C1CCOCC1 (stereo not drawn) [Example 94, N-((4,6-dimethyl-2-oxo-1,2-dihydropyridin-3-yl)methyl)-3-(ethyl(tetrahydro-2H-pyran-4-yl)amino)-5-(4-hydroxy-2′-oxospiro[cyclohexane-1,3′-dihydroindole]-6′-yl)-2-methylbenzamide] |  |
| 0.74 nM | 0.68 nM | 0.53 nM | 2.36 nM | 3.54 nM | 1.04 nM | CCN(c1cc(-c2ccc3c(c2)NC(=O)C32CCOCC2)cc(C(=O)NCc2c(C)cc(C)[nH]c2=O)c1C)C1CCC(N(C)C2COC2)CC1 (stereo not drawn) [Example 121, N-((4,6-dimethyl-2-oxo-1,2-dihydropyridin-3-yl)methyl)-3-(ethyl(4-(methyl(oxetan-3-yl)amino)cyclohexyl)amino)-2-methyl-5-(2-oxo-2′,3′,5′,6′-tetrahydrospiro[dihydroindole-3,4′-pyran]-6-yl)benzamide] |  |
| 0.89 nM | 0.63 nM | 0.48 nM | 4.73 nM | 3.67 nM | 1.37 nM | CCN(c1cc(-c2ccc3c(c2)NC(=O)C32CCOCC2)cc(C(=O)NCc2c(C)cc(C)[nH]c2=O)c1C)C1CCN(C)CC1 [Example 81, N-((4,6-dimethyl-2-oxo-1,2-dihydropyridin-3-yl)methyl)-3-(ethyl(1-methylpiperidin-4-yl)amino)-2-methyl-5-(2-oxo-2′,3′,5′,6′-tetrahydrospiro[dihydroindole-3,4′-pyran]-6-yl)benzamide] |  |
| 0.79 nM | 0.78 nM | 0.42 nM | 2.73 nM | 2.85 nM |  | CCN(c1cc(-c2ccc3c(c2)NC(=O)C32CCOCC2)cc(C(=O)NCc2c(OC)cc(C)[nH]c2=O)c1C)C1CCC(N(C)C)CC1 (stereo not drawn) [Example 100] | IC50 (wild-type EZH2): 1.05 nM |
| 0.49 nM | 0.71 nM | 0.24 nM | 1.08 nM | 1.87 nM | 0.95 nM | CCN(c1cc(-c2ccc3c(c2)NC(=O)C32CCC(F)(F)CC2)cc(C(=O)NCc2c(C)cc(C)[nH]c2=O)c1C)C1CCOCC1 [Example 91, 5-(4,4-difluoro-2′-oxospiro[cyclohexane-1,3′-dihydroindole]-6′-yl)-N-((4,6-dimethyl-2-oxo-1,2-dihydropyridin-3-yl)methyl)-3-(ethyl(tetrahydro-2H-pyran-4-yl)amino)-2-methylbenzamide] |  |

| Compound | IC50 (Mutant type EZH2(Y641F)) | IC50 (Mutant type EZH2(A677G); [5]) | IC50 (Mutant type EZH2(Y641N)) | IC50 [1, 6] | IC50 [2, 7] | IC50 (wild-type EZH2; [13]) | further results |
| --- | --- | --- | --- | --- | --- | --- | --- |
| CCN(c1cc(-c2ccc3c(c2)NC(=O)C32CCN(C3COC3)CC2)cc(C(=O)NCc2c(C)cc(C)[nH]c2=O)c1C)C1CCOCC1 [Example 84, N-((4,6-dimethyl-2-oxo-1,2-dihydropyridin-3-yl)methyl)-3-(ethyl(tetrahydro-2H-pyran-4-yl)amino)-2-methyl-5-(1′-(oxetan-3-yl)-2-oxospiro[dihydroindole-3,4′-piperidine]-6-yl)benzamide] | 0.63 nM | 0.47 nM | 0.25 nM | 1.74 nM | 1.86 nM | 2.13 nM | AUC [3, 14]: 0.933 µg·h/mL; half-life [3, 14]: 1.38 h; AUC [3, 15]: 1.19 µg·h/mL; Cmax [3, 15]: 501 ng/mL; bioavailability [3, 15]: 25.4% |
| CCN(c1cc(-c2ccc3c(c2)C2(CCC(F)CC2)C(=O)N3)cc(C(=O)NCc2c(C)cc(C)[nH]c2=O)c1C)C1CCOCC1 (stereo not drawn) [Example 119, 5-(4-Fluoro-2′-carbonylspiro[cyclohexano-1,3′-dihydroindole]-5′-yl)-N-((4,6-dimethyl-2-carbonyl-1,2-dihydropyridin-3-yl)methyl)-3-(ethyl(tetrahydro-2H-pyran-4-yl)amino)-2-methylbenzamide] | 0.95 nM |  | 0.63 nM |  |  |  | IC50 (Mutant type EZH2(A677G)): 0.76 nM; IC50 ([1]; Homo sapiens, Pfeiffer, read-out: Pfeiffer Proliferation IC50 Nanomoles per Liter (nM)): 3.52 nM; IC50 ([2]; Homo sapiens, KARPAS-422, read-out: Karpas422 Proliferation IC50 Nanomoles per Liter (nM)): 4.15 nM; IC50 (wild-type EZH2): 0.98 nM |
| CCN(c1cc(-c2ccc3c(c2)NC(=O)C32CCNCC2)cc(C(=O)NCc2c(C)cc(C)[nH]c2=O)c1C)C1CCSCC1 [Example 97, N-((4,6-Dimethyl-2-oxo-1,2-dihydropyridin-3-yl)methyl)-3-(ethyl(tetrahydro-2H-thiapyran-4-yl)amino)-2-methyl-5-(2-oxospiro[dihydroindole-3,4′-piperidine]-6-yl)benzamide] | 0.59 nM | 0.38 nM | 0.37 nM | 1.53 nM | 2.7 nM | 0.85 nM |  |
